From patent US7521418B2, “Use of a polyene macrolide antifungal agent in combination with a glycopeptide antibacterial agent” (Theravance, Inc., priority 2003, dated 2009)

System: C. krusei ATCC 32672
Test: Checkerboard MIC assay, FICI
Type: cell-based, Candida krusei
Conditions: combination with Compound 1; C. krusei ATCC 32672
Excerpt: The following assay was used to determine the minimum inhibitory concentration (MIC) and fractional inhibitory concentration index (FICI) for combinations of an antifungal agent and a glycopeptide antibacterial agent. This assay and methods for calculating FICI are well known in the art. See, for example, Eliopoulos, E. G. and R. Moellering, Jr. “Antimicrobial Combinations” in Antibiotics in Laboratory Medicine, edited by V. Lorian, 4th Ed., Williams & Wilkins, Baltimore, MD, pp. 330-396 (1996); […] et al., Antimicrobial Agents and Chemotherapy 47(4):1416-1418 (2003); or […] et al., Antimicrobial Agents and Chemotherapy 46(10):3323-3326 (2002). Procedures, protocols, supplies and equipment used in this assay follow the recommendations approved and published by the National Committee for Clinical Laboratory Standards (NCCLS), Wayne, Pa. as described in NCCLS 2003, “Reference Method for Broth Dilution Antimicrobial Susceptibility Tests for Bacteria that Grow Aerobically; Approved Standard” (NCCLS document M7-A6); NCCLS 2002, “Reference Method for Broth Dilution Antifungal Susceptibility Tests of Filamentous Fungi that Grow Aerobically; Approved Standard” (NCCLS document M38-A); and NCCLS 2002 “Reference Method for Broth Dilution Antifungal Susceptibility Tests of Yeast; Approved Standards-2nd Edition” (NCCLS document M27-A2). Using a checkerboard method, a 2-fold dilution 100× final concentration master plate was prepared using a 96-well U-shape microtiter plate and an appropriate solvent. In the “checkerboard” method, a microtiter plate is divided into “columns” in which each well in the column contains the same amount of an antifungal agent (Compound A) being diluted along the x-axis, and “rows” in which each well in the row contains the same amount of a glycopeptide antibacterial agent (Compound B) being diluted on the y-axis. Also included is a row (or column) for Compound A or B alone. The dilutions used in the checkerboard are exponential (by powers of two). The result is that each well in the microtiter plate contains a unique concentration of the two compounds being tested. […] After mixing, 100 μL of 2× drug combinations were distributed into 96-well microtiter plates. […] Compound A was not added to Column 12, so Column 12 contained only Compound B. Compound B was diluted from row A starting at 6,400 μg/mL down to row G (100 μg/mL). Wells in Row A contained a final concentration of 64 μg/mL of Compound B; Row B contained a final concentration of 32 μg/mL of Compound B; Row C contained a final concentration of 16 μg/mL of Compound B; etc. Compound B was not added to Row H, so Row H only contained Compound A. […] The MIC of the glycopeptide antibacterial agent determined from this experiment was used in FIC calculations. […] RPMI-1640 without sodium bicarbonate media (GIBCO-BRL, Carlsbad, Calif.), an enriched media formulated for mammalian cells, was used according to the NCCLS guidelines for yeast and filamentous fungi susceptibility testing. The medium was buffered with 0.165 M 3-[N-Morpholino]propanesulfonic acid (MOPS) supplemented with 20 g/L glucose and pH adjusted to 7.0 with hydrogen chloride. Sabouraud Dextrose Agar ([…] plates, and Potato Dextrose Agar (PDA) plates were purchased from Hardy Diagnostic (Santa Maria, Calif.). Yeast cultures were started from -80° C. frozen stock streaked on […] incubated at 35° C. under aerobic conditions for 24 h. The […] in the refrigerator for up to 2 weeks and used regularly as a starting culture. About 24 to 48 h before each assay was run, yeasts were streaked on SDA plates for isolated colonies. To prepare the inoculum, from one to four colonies were resuspended in 5 mL of saline, and vortexed for 15 sec. […] For most yeast and mold cultures, the optical density (OD) of the suspension was adjusted to 0.11 in saline to provide 0.4×10^6 CFU/mL. However, for Fusarium moniliforme and Pseudallescheria boydii the OD of the suspension was adjusted to OD=0.17 to provide 0.4×10^6 CFU/mL. […]

C[C@@H]1[C@H](O)[C@@H](C)/C=C/C=C/C=C/C=C/C=C/C=C/C=C/[C@H](O[C@@H]2O[C@H](C)[C@@H](O)[C@H](N)[C@@H]2O)C[C@@H]2O[C@](O)(C[C@@H](O)C[C@@H](O)[C@H](O)CC[C@@H](O)C[C@@H](O)CC(=O)O[C@H]1C)C[C@H](O)[C@H]2C(=O)O [Amphotericin B]
FICI: 0.31

C[C@@H]1[C@H](O)[C@@H](C)/C=C/C=C/CC/C=C/C=C/C=C/C=C/C(O[C@H]2O[C@H](C)[C@@H](O)[C@H](N)[C@@H]2O)CC2O[C@](O)(CC(O)C(O)CCC(O)CC(O)CC(O)CC(=O)O[C@H]1C)CC(O)C2C(=O)O (some centres unmarked) [Nystatin]
FICI: 0.50
